Tests used:
[1] = Metabolite ID in Liver S9; format: in vitro ADME; conditions: HBI-2375 and metabolites in Dog liver S9
[2] = Mouse PK (oral); format: in vivo, C57/B16 mice; conditions: for Cmax: plasma; for AUC(0-t) / half-life: C57/B16, plasma
Protocol: Mouse PK: Animals were dosed with a single intravenous bolus or oral gavage administration in naïve C57/B16 mice (Beijing Vital River Laboratory Animal Co., LTD). Blood samples were collected at the respective sampling time points. The quantification of compound concentrations in mouse or rat plasma was quantified using LC-MS/MS method. Plasma concentration versus time data was analyzed by non-compartmental mode approaches using the WinNonlin software program (version 6.3 or above, Pharsight). Pharmacokinetic parameters, including C0 (initial concentration after drug administration), […], Vdss (volume of distribution), Cmax (maximum peak concentration of the drug), Tmax (time required to reach Cmax) T1/2 (time required for drug concentration to decrease by 50% after administration), AUC0-last (area under the concentration-time curve from dosing time t=0 to the time of the last measured concentration), AUC0-inf (total drug exposure across time), MRT0-last (mean residence time from dosing time t=0 to the time of the last measured concentration), MRT0-inf f (mean residence time of total drug exposure), bioavailability (%) (the percentage (or the fraction F) of an administered drug dose that reaches the systemic circulation) for IV and PO groups were calculated. See Table 7 and FIGS. 6A, 6B, 6C and 6D.

[3] = target: T1, BRD2-BD2 (Homo sapiens, UniProt P25440); assay: Selectivity panel (Table 3); format: binding
T1 construct: BRD2-BD2
T1 sequence (P25440 344-453 limits assumed): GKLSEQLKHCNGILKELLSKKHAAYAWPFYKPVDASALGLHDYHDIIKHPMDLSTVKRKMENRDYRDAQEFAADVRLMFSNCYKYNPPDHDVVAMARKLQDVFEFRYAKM

[4] = target: T2, BRDT-BD1 (Homo sapiens, UniProt Q58F21); assay: Selectivity panel (Table 3); format: binding
T2 construct: BRDT-BD1

## Cc1c(F)c(N)cc(C(=O)Nc2cc(-n3cc(C(=O)N4CCN(C)CC4)nn3)c(F)cc2N2C[C@@H](C)N(C)[C@@H](C)C2)c1Cl [HYBI-084, 5-amino-2-chloro-4-fluoro-N-(4-fluoro-5-(4-(4-methylpiperazine-1-carbonyl)-1H-1,2,3-triazol-1-yl)-2-((3S,5R)-3,4,5-trimethylpiperazin-1-yl)phenyl)-3-methylbenzamide]
[1]
  Relative Abundance (UV Peak Area % Total): 70.71%
[2]; 10 mpk
  F: 26.3%
[2]; 30 mpk
  F: 37.7%
[2]; C57/B16, 10 mg/kg, 10 mpk
  Cmax: 359 nM
[2]; C57/B16, 30 mg/kg, 30 mpk
  Cmax: 1280 nM
[2]; 10 mg/kg, 10 mpk
  AUC(0-t): 1.31 µM·h
  half-life: 3.1 h
[2]; 30 mg/kg, 30 mpk
  AUC(0-t): 5.64 µM·h
  half-life: 3.5 h
[3]
  IC50: > 1000 nM
[4]
  IC50: > 1000 nM
